Assay results taken from patent US10919896B2, “Preparation and uses of pyrimidinone derivatives” (Cancer Research Technology Limited, priority 2016, dated 2021).

Biological target: Cdc7/ASK (Homo sapiens, UniProt O00311)
Assay: Cdc7 Biochemical Assay Method 1: 384 well ELISA, whole protein substrate MCM2, antibody against Phospho MCM2 (S53)
Design: purchased
Conditions: 2 μM ATP, read-out: Biochemical Method 1 (pIC50) (converted)
Method: This protocol describes a method for assaying Cdc7/ASK for activity. The assay is a 384 well ELISA assay, utilising a whole protein substrate (MCM2) and an antibody against Phospho MCM2 (S53). This site is thought to be specific to Cdc7/ASK phosphorylation and the assay has been validated using knockout mutants. Reagents • TBS: 25 mM Tris pH 7.2, 150 mM NaCl. (Dilute 10× stock by 1:10). • Wash Buffer: TBS+0.05% Tween 20. (Add 100 mL 1 M Tris pH 7.2, 120 mL 5 M NaCl and 2 mL 100% Tween 20 per 4 L). • Kinase Reaction Buffer: 50 mM Tris-HCl pH 8.5, 10 mM MgCl2, 1 mM DTT. (Dilute 10× stock by 1:10 and add 100 μL 1M DTT per 100 mL prior to assay). • Diethanolamine Buffer: 1 M diethanolamine pH 9.8, 0.5 mM MgCl2. • Stop Solution: 1 M NaOH. • MCM2 was expressed and purified in-house and used in the assay at a final assay concentration of 436 ng/well. • Cdc7/ASK is purchased from commercial suppliers and used in the assay at a final assay concentration of 37.97 ng/well or 20.63 nM. • ATP used as a final assay concentration of 2 μM. • Primary Antibody: Rabbit anti-Phospho MCM2 (S53 Antibody (BL3353)), is purchased from commercial suppliers at 0.2 mg/mL and used at a final assay concentration by diluting 1:800 in TBS. • Secondary Antibody: Anti-Rabbit/AP Antibody is supplied is purchased from commercial suppliers at 1 mg/mL and used at a final assay concentration by diluting 1:2000 in TBS. • Development Reagent: Dissolve one 20 mg PNPP tablet (Sigma, product […], 20 mg per tablet) per 20 mL diethanolamine Buffer (or one 5 mg PNPP tablet per 5 mL diethanolamine buffer). Cover in foil and leave shaking on a roller shaker at room temperature for up to an hour to dissolve. Methods • 1. Add 20 μL 1× working stock of Substrate (MCM2) in TBS to all wells of a clear, 384 well, Nickel-chelate microplate to give a final concentration of […]. Incubate at room temperature for at least 1 hour. Plates can be pre-coated for 1 hour and stored at 4° C. for up to 8 days. • 2. Wash with TBS+0.05% Tween 20 (80 μL×3). • 3. Add 2 μL 10× test compounds, including the positive control, in 40% DMSO/water to 'test' wells. Add 2 μL 40% DMSO/water to 'control' and 'blank' wells. The final DMSO concentration will be 4%. • 4. Add 13 μL CDC7/ASK Kinase (1.5× stock) in Kinase Reaction Buffer to 'test' and 'control' wells to give a final concentration of […]. Add 13 μL Kinase Reaction Buffer to 'blank' wells. • 5. Add 5 μL ATP (4× stock) in Kinase Reaction Buffer to all wells to give a final concentration of 2 μM. • 6. Incubate at room temperature for 90 minutes. • 7. Wash with TBS+0.05% Tween 20 (80 μL×3). • 8. Add 20 μL 1× working solution of Primary Antibody in TBS to all wells. Incubate at room temperature for 30 minutes. • 9. Wash with TBS+0.05% Tween 20 (80 μL×3). • 10. Add 20 μL 1× working solution of Secondary Antibody in TBS to all wells. Incubate at room temperature for 30 minutes. • 11. Wash with TBS+0.05% Tween 20 (80 μL×3). • 12. Add 20 μL 1× Development Reagent to all wells. • 13. Incubate at room temperature for 2 hours. Stop the reaction by adding 20 μL Stop Solution to all wells and record Absorbance on a Pherastar plate reader. Percentage inhibition values were calculated from absorbance values, using the no compound (DMSO) and no enzyme control values as 0% and 100% inhibition, respectively. IC50 determination was performed with ExcelFit software (IDBS) using curve fit 205. Z' factors were determined for each plate tested and were all above 0.5. Method 2

Chain of Cdc7/ASK (O00311 whole entry): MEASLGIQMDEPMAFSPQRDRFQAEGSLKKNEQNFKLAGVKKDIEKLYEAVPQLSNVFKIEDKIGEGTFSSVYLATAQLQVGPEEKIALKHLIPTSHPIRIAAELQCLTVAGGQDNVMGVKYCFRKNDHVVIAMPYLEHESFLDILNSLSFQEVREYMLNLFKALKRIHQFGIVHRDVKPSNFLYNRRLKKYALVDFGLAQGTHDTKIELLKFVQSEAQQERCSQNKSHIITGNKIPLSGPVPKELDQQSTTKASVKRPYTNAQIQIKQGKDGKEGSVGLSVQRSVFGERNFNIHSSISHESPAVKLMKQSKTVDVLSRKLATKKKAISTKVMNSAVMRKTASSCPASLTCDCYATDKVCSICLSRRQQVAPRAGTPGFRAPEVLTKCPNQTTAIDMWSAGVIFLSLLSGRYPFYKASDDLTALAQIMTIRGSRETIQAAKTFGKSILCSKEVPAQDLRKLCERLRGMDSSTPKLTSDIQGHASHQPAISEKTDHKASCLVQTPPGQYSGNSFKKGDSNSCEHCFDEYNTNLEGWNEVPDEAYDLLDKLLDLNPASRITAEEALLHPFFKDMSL
Chain of Cdc7/ASK (Q9UBU7 whole entry partner): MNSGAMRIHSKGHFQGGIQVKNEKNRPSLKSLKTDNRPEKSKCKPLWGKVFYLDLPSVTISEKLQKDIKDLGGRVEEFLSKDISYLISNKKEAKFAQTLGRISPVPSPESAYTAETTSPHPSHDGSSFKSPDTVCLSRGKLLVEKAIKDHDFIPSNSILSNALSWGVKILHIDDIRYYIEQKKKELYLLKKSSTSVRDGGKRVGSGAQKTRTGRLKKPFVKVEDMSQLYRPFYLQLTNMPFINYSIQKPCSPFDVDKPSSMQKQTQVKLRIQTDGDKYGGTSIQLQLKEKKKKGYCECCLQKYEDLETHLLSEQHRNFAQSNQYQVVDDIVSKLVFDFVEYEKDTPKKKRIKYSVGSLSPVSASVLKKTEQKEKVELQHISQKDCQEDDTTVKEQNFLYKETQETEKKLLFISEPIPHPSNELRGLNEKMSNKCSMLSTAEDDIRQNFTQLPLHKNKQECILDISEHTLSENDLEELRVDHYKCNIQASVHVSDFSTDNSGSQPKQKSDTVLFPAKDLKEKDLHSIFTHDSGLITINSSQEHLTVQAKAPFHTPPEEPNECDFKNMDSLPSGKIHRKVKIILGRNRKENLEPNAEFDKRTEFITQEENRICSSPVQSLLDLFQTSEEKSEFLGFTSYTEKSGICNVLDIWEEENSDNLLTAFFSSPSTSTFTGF

IC50	SMILES
70.8 nM	CC(C)(C)OC(=O)N1CCC(c2nc(-c3ccncc3)[nH]c(=O)c2Cl)CC1 [Compound 1, tert-Butyl 4-[5-chloro-6-oxo-2-(4-pyridyl)-1H-pyrimidin-4-yl]piperidine-1-carboxylate]
1.74 nM	O=c1[nH]c(-c2ccncc2)nc(C2CCNCC2)c1Cl [Compound 2, 5-Chloro-6-piperidin-4-yl-2-pyridin-4-yl-3H-pyrimidin-4-one]
6.76 nM	O=c1[nH]c(-c2ccncc2)nc(C2CCOCC2)c1Br [Compound 3, 5-bromo-2-(4-pyridyl)-4-tetrahydropyran-4-yl-1H-pyrimidin-6-one]
331 nM	O=c1[nH]c(-c2ccncc2)nc(C2CCOCC2)c1I [Compound 4, 5-Iodo-2-(4-pyridyl)-4-tetrahydropyran-4-yl-1H-pyrimidin-6-one]
6.31 nM	O=c1[nH]c(-c2ccncc2)nc(C2CCOCC2)c1F [Compound 5, 5-fluoro-2-(4-pyridyl)-4-tetrahydropyran-4-yl-1H-pyrimidin-6-one]
1.45 nM	O=c1[nH]c(-c2ccncc2)nc(C2CCOCC2)c1Cl [Compound 6]
2450 nM	O=c1[nH]c(-c2ccncc2)nc(C2CCCN2)c1Cl (stereo not drawn) [Compound 7]
3.63 nM	O=c1[nH]c(-c2ccncc2)nc(C2CCCNC2)c1Cl (stereo not drawn) [Compound 8]
3.39 nM	CC1(c2nc(-c3ccncc3)[nH]c(=O)c2Cl)CCOCC1 [Compound 9]
5.25 nM	O=c1[nH]c(-c2ccncc2)nc(C2CCNC2)c1Cl (stereo not drawn) [Compound 11]
20 nM	O=c1[nH]c(-c2ccncc2)nc(C2CCOC2)c1Cl (stereo not drawn) [Compound 12]
123 nM	CC(C)C1CC(c2nc(-c3ccncc3)[nH]c(=O)c2Cl)CCO1 (stereo not drawn) [Compound 14]
832 nM	O=c1[nH]c(-c2ccncc2)nc(C2CCCCO2)c1Cl (stereo not drawn) [Compound 15]
12.9 nM	O=c1[nH]c(-c2ccncc2)nc(C2CCCOC2)c1Cl (stereo not drawn) [Compound 16]
347 nM	O=c1[nH]c(-c2ccncc2)nc(C2CNCCO2)c1Cl (stereo not drawn) [Compound 20]
1260 nM	CN(C)C1CCN(c2nc(-c3ccncc3)[nH]c(=O)c2Cl)C1 (stereo not drawn) [Compound 29]
13.2 nM	CC(C)C(=O)N1CCC(c2nc(-c3ccncc3)[nH]c(=O)c2Cl)CC1 [Compound 34, 5-chloro-4-[1-(2-methylpropanoyl)-4-piperidyl]-2-(4-pyridyl)-1H-pyrimidin-6-one]
25.7 nM	CC(C)NC(=O)N1CCC(c2nc(-c3ccncc3)[nH]c(=O)c2Cl)CC1 [Compound 36, 4-[5-chloro-6-oxo-2-(4-pyridyl)-1-H-pyrimidin-4-yl]-N-isopropyl-piperidine-1-carboxamide]
5.62 nM	O=C(N1CCC(c2nc(-c3ccncc3)[nH]c(=O)c2Cl)CC1)C(F)(F)F [Compound 38, 5-chloro-2-(4-pyridyl)-4-[1-(2,2,2-trifluoroacetyl)-4-piperidyl]-1H-pyrimidin-6-one]
8.13 nM	CC(=O)N1CCC(c2nc(-c3ccncc3)[nH]c(=O)c2Cl)CC1 [Compound 40]
63.1 nM	CC(C)(C)C(=O)N1CCC(c2nc(-c3ccncc3)[nH]c(=O)c2Cl)CC1 [Compound 44]
5.13 nM	O=C(c1ccco1)N1CCC(c2nc(-c3ccncc3)[nH]c(=O)c2Cl)CC1 [Compound 51]
2.63 nM	Cc1cc(C(=O)N2CCC(c3nc(-c4ccncc4)[nH]c(=O)c3Cl)CC2)[nH]n1 [Compound 52]
0.871 nM	Cc1nc(C)c(C(=O)N2CCC(c3nc(-c4ccncc4)[nH]c(=O)c3Cl)CC2)s1 [Compound 54]
2.09 nM	Cn1cnc(C(=O)N2CCC(c3nc(-c4ccncc4)[nH]c(=O)c3Cl)CC2)c1 [Compound 55]
1.62 nM	Cc1cc(C(=O)N2CCC(c3nc(-c4ccncc4)[nH]c(=O)c3Cl)CC2)n(C)n1 [Compound 56]
3.47 nM	O=C(c1cscn1)N1CCC(c2nc(-c3ccncc3)[nH]c(=O)c2Cl)CC1 [Compound 57]
0.912 nM	Cc1cc(C(=O)N2CCC(c3nc(-c4ccncc4)[nH]c(=O)c3Cl)CC2)nn1C [Compound 58]

Second part, the molecule before the results:

SMILES	IC50
CC1(c2nc(-c3ccnc(F)c3)[nH]c(=O)c2Cl)CCOCC1 [Compound 10]	3.02 nM
O=c1[nH]c(-c2ccnc(F)c2)nc(C2CCOCC2)c1F [Compound 17]	2.34 nM
O=c1[nH]c(-c2ccnc(F)c2)nc(C2(F)CCOCC2)c1Cl [Compound 18]	0.794 nM
O=c1[nH]c(-c2ccncc2)nc(C2(F)CCCNC2)c1Cl (stereo not drawn) [Compound 19]	3.39 nM
O=c1[nH]c(-c2ccncc2)nc(C2(F)CCNCC2)c1Cl [Compound 21]	1.51 nM
CC(C)(C)OC(=O)N1CCC(F)(c2nc(-c3ccncc3)[nH]c(=O)c2Cl)CC1 [Compound 22]	74.1 nM
O=c1[nH]c(-c2ccnc(Cl)c2)nc(C2CCOCC2)c1Cl [Compound 23]	19.1 nM
O=c1[nH]c(-c2ccnc(C(F)(F)F)c2)nc(C2CCOCC2)c1Cl [Compound 24]	1020 nM
CC(C)(C)OC(=O)N1CCC(c2nc(-c3ccnc(F)c3)[nH]c(=O)c2Cl)CC1 [Compound 25]	23.4 nM
O=c1[nH]c(-c2ccncc2)nc(N2CCCCC2)c1Cl [Compound 26, 5-chloro-4-(1-piperidyl)-2-(4-pyridyl)-1H-pyrimidin-6-one]	6.76 nM
CCOC1CCN(c2nc(-c3ccncc3)[nH]c(=O)c2Cl)CC1 [Compound 27]	21.4 nM
O=c1[nH]c(-c2ccncc2)nc(N2CCCC2)c1Cl [Compound 30]	132 nM
CC(C)(C)OC(=O)N1CCN(c2nc(-c3ccncc3)[nH]c(=O)c2Cl)CC1 [Compound 32]	100 nM
O=C1CN(c2nc(-c3ccncc3)[nH]c(=O)c2Cl)CCN1 [Compound 33]	12.9 nM
CC(C)(C)OC(=O)NCC(=O)N1CCC(c2nc(-c3ccncc3)[nH]c(=O)c2Cl)CC1 [Compound 35, tert-butyl-N-[2-[4-[5-chloro-6-oxo-2-(4-pyridyl)-1H-pyrimidin-4-yl]-1-piperidyl]-2-oxo-ethyl]carbamate]	22.9 nM
O=c1[nH]c(-c2ccncc2)nc(C2CCN(S(=O)(=O)c3ccccc3)CC2)c1Cl [Compound 37, 4-[1-(benzenesulfonyl)-4-piperidyl]-5-chloro-2-(4-pyridyl)-1H-pyrimidin-6-one]	30.2 nM
O=C(c1ccccc1)N1CCC(c2nc(-c3ccncc3)[nH]c(=O)c2Cl)CC1 [Compound 41]	6.92 nM
CC(=O)N1CCN(c2nc(-c3ccncc3)[nH]c(=O)c2Cl)CC1 [Compound 42]	5.13 nM
CS(=O)(=O)N1CCN(c2nc(-c3ccncc3)[nH]c(=O)c2Cl)CC1 [Compound 43]	3.16 nM
O=C(c1ccccn1)N1CCC(c2nc(-c3ccncc3)[nH]c(=O)c2Cl)CC1 [Compound 45]	8.71 nM
N#Cc1ccc(C(=O)N2CCC(c3nc(-c4ccncc4)[nH]c(=O)c3Cl)CC2)cc1 [Compound 46]	1.41 nM
O=C(c1ccnnc1)N1CCC(c2nc(-c3ccncc3)[nH]c(=O)c2Cl)CC1 [Compound 47]	1.12 nM
N#Cc1cccc(C(=O)N2CCC(c3nc(-c4ccncc4)[nH]c(=O)c3Cl)CC2)c1 [Compound 48]	2.57 nM
O=C(c1ccccc1I)N1CCC(c2nc(-c3ccncc3)[nH]c(=O)c2Cl)CC1 [Compound 49]	15.8 nM
O=C(c1cccc(O)c1)N1CCC(c2nc(-c3ccncc3)[nH]c(=O)c2Cl)CC1 [Compound 50]	3.09 nM
O=C(Cc1c[nH]cn1)N1CCC(c2nc(-c3ccncc3)[nH]c(=O)c2Cl)CC1 [Compound 53]	5.75 nM
